Experiments:
[1] = system: RhoA; assay: Rho activation assay (GLISA) in retinal endothelial cells; format: cell-based, human
Method: This experiment was performed using a commercially-available Rho activation assay (GLISA) purchased from Cytoskeleton, Denver, Colo., following the manufacturer's protocol. […] Test compounds diluted in HBSS were placed in the incubator to equilibrate before addition to the cells. Then, 150 μl of each test compound was added to the appropriate culture wells, and the plates were incubated in the incubator for an additional 15 minutes. Then, thrombin was added to appropriate wells. After 1 minute, the cells were washed one time with 1.5 ml phosphate buffered saline and were then lysed with 100 μl GLISA lysis buffer supplemented with protease inhibitors. The extracts were scraped, transferred to microcentrifuge tubes and transferred to ice to preserve the active form of RhoA. All extracts were then cleared of debris by spinning at 10,000 rpms for 2 minutes at 4° C. The supernatants were transferred to new tubes and placed back on ice. Aliquots of each extract were removed for the GLISA assay and for protein determinations. All protein concentrations were within 10%, and the extracts were used at the achieved concentrations (equates to 15 μg total protein per well). The GLISA assay was performed using the reagents supplied in the kit.

[2] = system: human retinal endothelial cells; assay: TER of retinal endothelial cell monolayers with danazol, steroid receptor antagonists and hormones (Example 10); details: for TER at 5 minutes: None 250.30; for TER at 60 minutes: None 251.00; for TER at 30 minutes: None 262.31; for TER at 24 Hours: None 287.09
[3] = system: human retinal endothelial cells; assay: TER of retinal endothelial cell monolayers with danazol and steroid receptor antagonists (Example 6); details: for TER at 30 minutes: None 216.22; for TER at 120 minutes: None 234.23; for TER at 60 minutes: None 249.25; for TER at 24 Hours: None 312.31
[4] = system: human retinal endothelial cells; assay: Actin stress fiber formation (Example 11), retinal cells
[5] = system: human renal glomerular microvascular endothelial cells; assay: Actin stress fiber formation (Example 11), glomerular cells
[6] = system: human retinal endothelial cells; assay: ECIS resistance (Example 12), retinal cells
[7] = system: human retinal endothelial cells; assay: Actin stress fiber formation, rhodamine-phalloidin staining, TNFα (Example 7); details: TNFα 50 ng/ml, 30 minutes
[8] = system: HUVECs; assay: HUVEC invasion (BioCoat Matrigel Invasion Chambers); format: cell-based, human; details: 24 hours, 5% FCS; FCS raised 5674 FU±77 to 7143±516; concentration of LY294002 not specified (10 μM and 100 μM tested)
Method: BioCoat Matrigel Invasion Chambers were purchased from BD Biosciences (San Jose, Calif.). Inserts were rehydrated at 37° C. with 500 μl HBSS for 2 hours prior to use in humidified incubator. Trypsinized HUVECs were washed twice with warm EGM-2 containing 0.1% FCS and added to the upper chamber of the invasion insert at 100,000 cells in a total volume of 250 μl. […]. Non-invasive cells were removed from the upper chamber with moistened cotton swabs and then the inserts were washed twice with HBSS. The inserts were then submerged in 10 μM calcein AM prepared in HBSS and incubated for 4 hours. Fluorescence was determined in a microplate reader at 485 nm excitation and 595 nm emission.
All data is presented as representative experiment done in triplicate. Differences between subsets were analyzed using student t-test in Microsoft Excel. P<0.05 was considered statistically significant.

[9] = system: VE-Cadherin; assay: VE-cadherin phosphorylation (immunoprecipitation, Pro-Q diamond / SYPRO ruby densitometry); format: cell-based, human; details: VEGF 50 ng/ml
Method: The plates were immediately treated to lyse the cells as follows. PBS and the lysis buffer (PBS containing 1% Triton X-100 supplemented with phosphatase inhibitor solutions 1 and 2 (Sigma), protease inhibitor (Sigma) and sodium orthovanadate at a final concentration of 2 mM) were cooled to 4° C. The cells were washed two times with 5 ml of the ice cold PBS and then lysed in 500 μl of the ice cold lysis buffer. The resulting protein extracts were transferred to 1.7 ml microcentrifuge tubes, and cell debris was removed by spinning at 4° C. at 10,000 rpm for 10 minutes. Then, 450 μl of the cleared solution was transferred to tubes containing 25 μl of Protein Dynabeads (Invitrogen) coated with 10 μl C19 anti-VE cadherin polyclonal antibody (Santa Cruz Biotechnology) (coating performed following manufacturer's protocol). The extracts and beads were then incubated overnight at 4° C. on an orbital shaker to capture VE cadherin from the extracts. The beads were then washed four times with ice cold lysis buffer. To release the protein from the beads, they were heated for 10 minutes at 75° C. in SDS loading dye containing 20% reducing dye (Invitrogen).
The released proteins were separated in 4-20% polyacrylamide gels (Invitrogen) at 120 volts for 1 hour. To determine phosphorylation and total protein in the gels, Pro-Q diamond (Invitrogen) and SYPRO ruby (Invitrogen) protein staining were sequentially performed following the manufacturer's protocol. The gels were photographed and densitometry performed using a Kodak imaging station.

[10] = system: human retinal endothelial cells; assay: Actin stress fiber formation, rhodamine-phalloidin staining, VEGF (Example 8); format: cell-based; details: VEGF 25 ng/ml, 30 minutes
Method: . […] To counter-stain for nuclei, 100 μl of a 3 μM DAPI (4,6-diamidino-2-phenylindole, dilactate (Invitrogen)) solution was added to each well. After 5 minutes, the cells were washed two times with 100 μl PBS.

[11] = passage 12 cells, 1.0 μM, no thrombin, Untreated 0.455
[12] = passage 12 cells, 0.1 U/ml Thrombin + 1.0 μM compound
[13] = 0.1 μM of each additive, background subtracted, divided by 0.33 cm^2
[14] = 10 nM hormone, alone or followed by 0.1 μM Danazol
[15] = S1P 1 μM alone, beginning at 15 minutes, strongest at 3 hours
[16] = passage 8 cells, 0.1 U/ml Thrombin + 10.0 μM compound
[17] = passage 12 cells, 0.1 U/ml Thrombin + 10.0 μM compound
[18] = 10.0 μM LY294002, alone or followed by 0.1 μM Danazol
[19] = 15 minutes, ethanol control 1.00

COc1cc2ncnc(Nc3ccc(Oc4ccccc4)cc3)c2cc1OC [Src-1 Inhibitor]
Percent Inhibition vs. Untreated Control ([1]; passage 12 cells, 1.0 μM): 23.21%
Mean OD (active RhoA) [1, 11]: 0.349
Mean OD (active RhoA) [1, 12]: 0.534
Percent Inhibition vs. Thrombin [1, 12]: 85.85%

C[C@]12CC[C@@H]3c4ccc(O)cc4C[C@@H](CCCCCCCCC[S+]([O-])CCCC(F)(F)C(F)(F)F)[C@H]3[C@@H]1CC[C@@H]2O (some centres unmarked) [Fluvestrant, fluvestrant]
TER at 5 minutes [2, 13]: 223.47
TER at 60 minutes [2, 13]: 243.99
TER at 30 minutes [2, 13]: 251.50
TER at 24 Hours [2, 13]: 279.28
TER at 30 minutes [3, 13]: 228.23
TER at 120 minutes [3, 13]: 258.26
TER at 60 minutes [3, 13]: 270.27
TER at 24 Hours [3, 13]: 336.34

CC(C)(O)C(=O)Nc1ccc([N+](=O)[O-])c(C(F)(F)F)c1 [Hydroxyflutamide, hydroxyflutamide]
TER at 5 minutes [2, 13]: 190.44
TER at 60 minutes [2, 13]: 215.97
TER at 30 minutes [2, 13]: 207.46
TER at 24 Hours [2, 13]: 267.27
TER at 30 minutes [3, 13]: 177.18
TER at 120 minutes [3, 13]: 201.20
TER at 60 minutes [3, 13]: 186.19
TER at 24 Hours [3, 13]: 297.30

C[C@]12CC[C@H]3[C@@H](CCC4=CC(=O)CC[C@@]43C)[C@@H]1CC[C@@H]2O [Testosterone, testosterone]
TER at 5 minutes [2, 14]: 257.51
TER at 60 minutes [2, 14]: 225.98
TER at 30 minutes [2, 14]: 240.49
TER at 24 Hours [2, 14]: 267.27

CCCCCCCCCCCCC/C=C/[C@@H](O)[C@@H](N)COP(=O)(O)O [S1P, sphingosine-1 phosphate]
F-actin staining pattern [4, 15]: showed actin cortical rings
F-actin staining pattern [5, 15]: showed actin cortical rings
persistence of increased ECIS ([6]; 1 μM of each compound, monitored for 90 hours): about 3 hours
start of increase of ECIS compared to untreated cells, after treatment ([6]; S1P 1 μM alone): ≤ 15 min

TNFα
F-actin staining pattern ([4]; TNFα 1 ng/ml alone): stress fibers were seen at all times
F-actin staining pattern [7]: strong stress fiber development with intensely staining focal points
F-actin staining pattern ([5]; TNFα 1 ng/ml alone): stress fibers were seen at all times

C[C@]12CC[C@@H]3c4ccc(O)cc4CC[C@H]3[C@@H]1CC[C@@H]2O [Estradiol, estradiol]
TER at 5 minutes [2, 14]: 246.50
TER at 60 minutes [2, 14]: 250.00
TER at 30 minutes [2, 14]: 245.50
TER at 24 Hours [2, 14]: 328.33

Thrombin
Mean OD (active RhoA) ([1]; passage 8 cells, 0.1 U/ml Thrombin alone, Untreated 0.102): 0.561
Mean OD (active RhoA) ([1]; passage 12 cells, 0.1 U/ml Thrombin alone, Untreated 0.455): 1.013

C[C@@H]1C[C@H]2[C@@H]3CCC4=CC(=O)C=C[C@]4(C)[C@@]3(F)[C@@H](O)C[C@]2(C)[C@@]1(O)C(=O)CO [Dexamethasone, dexamethasone]
Percent Inhibition vs. Untreated Control ([1]; passage 12 cells, 1.0 μM): 5.83%
Mean OD (active RhoA) [1, 11]: 0.428
Mean OD (active RhoA) [1, 12]: 0.826
Percent Inhibition vs. Thrombin [1, 12]: 33.48%

O=c1cc(N2CCOCC2)oc2c(-c3ccccc3)cccc12 [LY294002]
fluorescence of invaded cells [8]: 5814±153 FU
Percent Inhibition vs. Untreated Control ([1]; passage 8 cells, 10.0 μM): 45.32%
Mean OD (active RhoA) ([1]; passage 8 cells, 10.0 μM, no thrombin, Untreated 0.102): 0.056
Mean OD (active RhoA) [1, 16]: 0.433
Percent Inhibition vs. Thrombin [1, 16]: 27.86%
Percent Inhibition vs. Untreated Control ([1]; passage 12 cells, 10.0 μM): 18.70%
Mean OD (active RhoA) ([1]; passage 12 cells, 10.0 μM, no thrombin, Untreated 0.455): 0.370
Mean OD (active RhoA) [1, 17]: 0.685
Percent Inhibition vs. Thrombin [1, 17]: 58.73%
TER at 30 minutes [3, 18]: 297.30
TER at 120 minutes [3, 18]: 276.28
TER at 60 minutes [3, 18]: 354.35
TER at 24 Hours [3, 18]: 345.35

VEGF
Ratio phosphorylated: total protein ([9]; 15 minutes, ethanol control 0.215): 0.481
Relative intensity - ProQ results (phosphorylated protein) [9, 19]: 1.89
Relative intensity - SYPRO results (total protein) [9, 19]: 0.84
fold increase of ratio phosphorylated: total protein ([9]; versus ethanol control): (2.24 fold
F-actin staining pattern [10]: strong stress fiber development

Reference: patent publication US20130005699A1, “METHODS AND PRODUCTS FOR TREATMENT OF DISEASES” (DMI ACQUISITION CORP., priority 2009, published 2013)
